In US11312719B2, “9-substituted amino triazolo quinazoline derivatives as adenosine receptor antagonists, pharmaceutical compositions and their use” (Merck Sharp & Dohme Corp., priority 2018, dated 2022):

Key:
[1] = target: human A2b adenosine receptor (Homo sapiens (Human), UniProt P29275); test: A2b radioligand filtration binding assay; conditions: membranes from HEK293 cells expressing human A2b receptor
Method in brief: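 Membranes from HEK293 cells expressing human A2b receptor preincubated with compound 15 to 30 min at room temperature, then tritiated proprietary A2b antagonist (diluted to 14 nM before addition) added in PBS pH 7.4 for 60 min at room temperature. Bound radioactivity by filtration and scintillation; non-specific binding with 20 μM NECA; IC50 by 4-parameter logistic fit.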

[2] = target: human A2a adenosine receptor (Homo sapiens (Human), UniProt P29274); test: A2a receptor affinity radioligand binding assay ([3H] SCH58261); conditions: membranes from HEK293 or CHO cells expressing human A2a receptor
Method in brief: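 Membranes from HEK293 or CHO cells expressing human A2a were preincubated 15–30 min at room temperature with compound, then incubated 60 min at room temperature with [3H]SCH58261 (diluted to 4 nM) in 50 mM Tris pH 7.4, 10 mM MgCl2, 0.005% Tween20. Bound radioactivity was collected by filtration; nonspecific binding defined with 1 μM ZM241385; IC50 from 4-parameter logistic fit.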

Chain of human A2b adenosine receptor (P29275 whole entry): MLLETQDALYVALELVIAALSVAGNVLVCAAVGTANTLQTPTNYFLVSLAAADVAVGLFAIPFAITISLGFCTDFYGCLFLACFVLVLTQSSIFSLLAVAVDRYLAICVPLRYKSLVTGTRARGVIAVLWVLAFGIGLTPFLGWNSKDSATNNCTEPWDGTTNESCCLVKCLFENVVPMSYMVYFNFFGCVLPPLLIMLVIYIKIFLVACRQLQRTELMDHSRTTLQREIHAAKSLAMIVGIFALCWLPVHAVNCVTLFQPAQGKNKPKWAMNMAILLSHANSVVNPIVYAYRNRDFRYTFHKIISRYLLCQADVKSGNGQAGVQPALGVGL
Chain of human A2a adenosine receptor (P29274 whole entry): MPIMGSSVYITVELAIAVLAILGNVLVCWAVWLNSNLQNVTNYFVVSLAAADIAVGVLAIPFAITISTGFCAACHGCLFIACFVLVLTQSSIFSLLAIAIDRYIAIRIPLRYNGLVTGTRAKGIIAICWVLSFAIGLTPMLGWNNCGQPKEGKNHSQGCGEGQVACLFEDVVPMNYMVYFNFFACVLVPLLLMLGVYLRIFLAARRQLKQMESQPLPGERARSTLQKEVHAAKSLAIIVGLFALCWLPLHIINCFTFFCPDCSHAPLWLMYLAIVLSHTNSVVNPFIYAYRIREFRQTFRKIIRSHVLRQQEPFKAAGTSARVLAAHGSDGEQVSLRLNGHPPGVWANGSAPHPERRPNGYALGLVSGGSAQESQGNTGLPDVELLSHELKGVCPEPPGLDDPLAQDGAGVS

Row | IC50 [1] [nM] | IC50 [2] [nM] | SMILES
1 | 12.2 | 0.6 | COc1cc(F)cc2c1nc(N)n1nc([C@@H]3CCCN(c4ccc(OC(C)C)nc4)C3)nc21 [Example 35, (R)-9-fluoro-2-(1-(6-isopropoxypyridin-3-yl)piperidin-3-yl)-7-methoxy-[1,2,4]triazolo[1,5-c]quinazolin-5-amine]
2 | 93 | 1.6 | COc1cc(F)cc2c1nc(N)n1nc([C@@H]3CCCN(c4ncn(CC(C)(C)O)n4)C3)nc21 [Example 36, (R)-1-(3-(3-(5-amino-9-fluoro-7-methoxy-[1,2,4]triazolo[1,5-c]quinazolin-2-yl)piperidin-1-yl)-1H-1,2,4-triazol-1-yl)-2-methylpropan-2-ol]
3 | 468 | 1.1 | COc1cc(F)cc2c1nc(N)n1nc([C@@H]3CCCN(c4nc(C)n(CC(C)(C)O)n4)C3)nc21 [Example 37, (R)-1-(3-(3-(5-amino-9-fluoro-7-methoxy-[1,2,4]trazolo[1,5-c]quinazolin-2-yl)piperidin-1-yl)-5-methyl-1H-1,2,4-triazol-1-yl)-2-methylpropan-2-ol]
4 | 182 | 16.9 | COc1cc2nc(N)n3nc([C@@H]4CCN(c5cnn(CC6(O)CCC6)c5)C4)nc3c2cc1F [Example 38, (R)-1((4-(3-(5-amino-9-fluoro-8-methoxy-[1,2,4]triazolo[1,5-c]quinazolin-2-yl)prrolidin-l-yl)-1H-pyrazol-1-yl)methyl)cyclobutan-1-ol]
5 | 3010 | 18.3 | COc1cc2nc(N)n3nc(C4CCC(C)N(c5cnn(CC(C)(C)O)c5C)C4)nc3c2cc1F [Example 52, 1-(4-((2R,5S, or 2S,5R)-5-(5-amino-9-fluoro-8-methoxy-[1,2,4]triazolo[1,5-c]quinazolin-2-yl)-2-methylpiperidin-1-yl)-5-methyl-1H-pyrazol-1-yl)-2-methylpropan-2-ol]
6 | 4240 | 44.1 | COc1cc2nc(N)n3nc(C4CCC(C)N(c5cn(CC(C)(C)O)nc5C)C4)nc3c2cc1F [Example 53, 1-(4-((2R,5S, or 2S,5R)-5-(5-amino-9-fluoro-8-methoxy-[1,2,4]triazolo[1,5-c]quinazolin-2-yl)-2-methylpiperidin-1-yl)-3-methyl-1H-pyrazol-1-yl)-2-methylpropan-2-ol]
7 | 315 | 5.8 | COc1cc2nc(N)n3nc([C@@H]4CCCN(c5cnn(CCCC(C)=O)c5)C4)nc3c2cc1F [Example 93, (R)-5-(4-(3-(5-amino-9-fluoro-8-methoxy-[1,2,4]triazolo[1,5-c]quinazolin-2-yl)piperidin-1-yl)-1H-pyrazol-1-yl)pentan-2-one]
8 | 4.8 | 1.4 | COc1cc(F)cc2c1nc(N)n1nc([C@@H]3CCCN(c4cnn(C)c4)C3)nc21 [Example 100, (R)-9-fluoro-7-methoxy-2-(1-(1-methyl-1H-pyrazol-4-yl)piperidin-3-yl)-[1,2,4]triazolo[1,5-c]quinazolin-5-amine]
9 | 7.8 | 0.7 | COc1cc2nc(N)n3nc([C@@H]4CC[C@H](C)N(c5cnn(CC(C)(C)O)c5)C4)nc3c2cc1F [Example 109, 1-(4-((2S,5R)-5-(5-amino-9-fluoro-8-methoxy-[1,2,4]triazolo[1,5-c]quinazolin-2-yl)-2-methylpiperidin-1-yl)-1H-pyrazol-1-yl)-2-methylpropan-2-ol]
10 | 1.8 | 0.2 | C[C@H]1CC[C@@H](c2nc3c4cc(F)c(Cl)cc4nc(N)n3n2)CN1c1cnn(CC(C)(C)O)c1 [Example 110, 1-(4-((2S,5R)-5-(5-amino-8-chloro-9-fluoro-[1,2,4]triazolo[1,5-c]quinazolin-2-yl)-2-methylpiperidin-1-yl)-1H-pyrazol-1-yl)-2-methylpropan-2-ol]
11 | 16.5 | 0.7 | C[C@H]1CC[C@@H](c2nc3c4cc(F)cc(F)c4nc(N)n3n2)CN1c1cnn(CC(C)(C)O)c1 [Example 111, 1-(4-((2S,5R)-5-(5-amino-7,9-difluoro-[1,2,4]triazolo[1,5-c]quinazolin-2-yl)-2-methylpiperidin-1-yl)-1H-pyrazol-1-yl)-2-methylpropan-2-ol]
